The record followed here is patent US20240239818A1, “COMPOUNDS AND COMPOSITIONS COMPRISING FLUOROPHORES FOR USE IN VISUALIZATION AND PURIFICATION OR MANIPULATION” (priority 2022, published 2024).

Series [1] concerns the target T1, msGFP-HaloTag® fusion protein (mitochondria) from HEK293T cells (Rhodococcus rhodochrous, UniProt P0A3G2, A155T/A167V/A172T/A224E/C128F/C176G/D78G/E160K/E257K/H272N/K175M/K195N/L47V/L88M/N227D/S58T/T264A/Y273L/Y87F).
T1 construct: and (4) HaloTag®; expressed in transfected cells; host or cells: HEK293T, calcium phosphate transfection
Put plainly: Affinity capture (streptavidin microbeads) and in-gel fluorescence. Type of series: cell-based. The note with it: for affinity capture (protein bound to streptavidin): streptavidin beads; for capture efficiency: mean±SEM, n=3, streptavidin beads. Here is the method:
Affinity capture and in-gel fluorescence experiments. Affinity capture pulldown isolation experiments of biotin-labeled HaloTag® fusion proteins were performed on ice-cold isolation buffer (IB) consisting of KCl (0.18 M), ethylene glycol-bis(β-aminoethyl ether)-N,N,N′,N′-tetraacetic acid (EGTA; 1 mM), 3-(N-morpholino)propanesulfonic acid (MOPS; 5 mM); the pH was adjusted to pH=7.35 using KOH(aq).^51 HEK293T cells were scraped with 500 μL IB and homogenized using 12 strokes with a 27G syringe. The resulting homogenate was spun at 4° C. at 1000 g for 3 min to pellet large cellular debris. 50 μL of streptavidin-coated microbeads (Miltenyi, 130-048-101) were added to the supernatant and incubated for 30 min at 4° C. with slow rotation. LS columns (Miltenyi, 130-042-401) were prepared by first washing with 3 mL IB consisting of 2.5% bovine serum albumin (BSA; Jackson ImmunoResearch, 001-000-162) and then with plain IB (3×). Prior to supernatant-microbead mixture being loaded onto LS columns, 5% volume was taken for downstream total fraction calculations (i.e., the “total/20” sample). Columns and samples were kept at 4° C. (cold room) while samples were loaded onto columns and washed with IB (3×); this fraction was collected as designated as “wash”. After the washing step, the column was removed from the QuadroMACs magnet holder (Miltenyi, 130-092-857) and eluted with gentle plunge action into an Eppendorf tube; this was labeled as “eluate”. From here, there were three fractions for each condition: total/20, wash (unbound), and eluate (bound). Since mitochondria were being isolated, these samples were spun at 4° C. and 20,000 g to pellet mitochondria. These samples were then solubilized using the lysis buffer containing 1×PBS, 2% SDS, 1% Triton x-100, 10 mM EDTA, and protease inhibitors (2 mM PMSF, aprotinin, leupeptin, and pepstatin A). Samples were then incubated at 72° C. for 3-4 min after the addition of sample buffer (SB) (DTT, glycerol, and bromophenol blue). For protein detection, 10-20 μL of the sample was subjected to sodium dodecyl sulfate-polyacrylamide gel electrophoresis (SDS-PAGE), using 13% gels. The affinity capture pulldown efficiency was monitored using in-gel fluorescence. The msGFP signal from HaloTag®-TEV-4×GS-msGFP-mito after cell lysis and SDS-PAGE was analyzed, in-gel, using a BioRad Chemidoc MP imager (BioRad) through GFP fluorescence excitation and emission filters. Data were quantified by densitometry using Fiji.^52 Capture efficiency was calculated using equation 3:
[formula] • where Ieluate is the in-gel fluorescence intensity of the bead-bound fraction and Itotal/20 is the in-gel fluorescence intensity of the 5% of crude sample reserved for concentration control (i.e., the “total/20” sample).
Evaluation of biotin-HaloTag® ligand. A live cell permeable biotin reagent was saught for affinity pulldown of HaloTag® fusion proteins, given the broad utility of biotin conjugates in biochemistry and cell biology. To evaluate the performance of biotin-containing HaloTag® ligand, an assay was developed (FIG. 3A) where the HaloTag® is expressed as a fusion with monomeric superfolder green fluorescent protein (msGFP); the construct also included an OMP25 sequence to localize the fusion protein to the outer mitochondrial membrane, allowing straightforward imaging and affinity capture experiments.^28-29 HEK293T cells expressing this fusion protein were incubated with biotin-containing HaloTag® ligands followed by washing and cell lysis. The crude supernatant was incubated with streptavidin-coated magnetic microbeads, applied to a magnetic column, and washed. The magnet was removed, and the bead-bound mitochondria were eluted, lysed, and the resulting solution was analyzed by sodium dodecyl sulfate-polyacrylamide gel electrophoresis (SDS-PAGE) and in-gel fluorescence. To minimize dilution of the sample only the initial bead-bound fraction was collected, leaving some material on the column. […]

The format of series [2] is physicochemical. Here is the method:
Determination of logD7.4. The log of distribution coefficients at pH 7.4 was determined in octanol-phosphate-buffered saline (PBS) using the miniaturized shake flask setup described previously.^36, 47 Briefly, 150 mL each of octanol and PBS pH 7.4 were stirred vigorously for 12-16 h. The layers were allowed to stand for at least 24 h for phase separation. The separated layers were collected and served as PBS saturated with octanol (PBS*) and octanol saturated with PBS (octanol*). Stock solutions (1 mM or 5 mM) of ligands were prepared in DMSO and diluted in PBS* to obtain 1 μM or 10 μM (3-5 mL) of the standard (std). This standard was used to prepare appropriate dilutions using octanol*, in triplicate, in 2-mL glass vials. The leftover standard was used to determine the standard concentration (Cstd). The vials were vortexed for 1 min and shaken horizontally at 700 rpm for 2 h. The vials were then shaken upright at 150 rpm for 2 h to allow the phases to separate. The octanol* layer was pipetted out, and the PBS* layer was used for further analyses. The concentrations of ligands in the standard and PBS* (CPBS*) were determined via fluorescence measurements of 200 μL of PBS* or std in 96-well plates on the Cytation 5 Multimode Plate Reader (BioTek). For Si-rhodamine containing ligands, 2-20 μL of trifluoroacetic acid was added to each well of the 96-well plate prior to the fluorescence measurements. Reported values are averages of at least two measurements. The logD7.4 was obtained as described previously using equation 2:
[formula] • where Cstd is the standard concentration in PBS, CPBS* is the concentration in PBS after partitioning, r is the dilution factor of the standard solution, VPBS* is the volume of PBS used in the partitioning, and Voctanol* is the volume of octanol used in the partitioning.

Like-named read-outs stand apart in the source and are kept apart here.

T1 sequence (P0A3G2 other isoform, or with tags, fused parts or gaps with the stated changes): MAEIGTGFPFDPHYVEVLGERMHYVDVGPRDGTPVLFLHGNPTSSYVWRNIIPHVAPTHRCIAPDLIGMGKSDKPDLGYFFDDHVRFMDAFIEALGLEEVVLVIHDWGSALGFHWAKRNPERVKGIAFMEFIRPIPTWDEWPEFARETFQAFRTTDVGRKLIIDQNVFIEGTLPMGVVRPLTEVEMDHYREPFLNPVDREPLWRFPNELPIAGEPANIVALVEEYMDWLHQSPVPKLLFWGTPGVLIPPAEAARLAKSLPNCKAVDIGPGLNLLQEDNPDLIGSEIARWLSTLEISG

Consider `C[Si]1(C)c2cc(N3CC(F)C3)ccc2C2(OC(=O)c3ccc(C(=O)NCCOCCOCCCCCCCl)cc32)c2ccc(N3CC(F)C3)cc21` [5HTL, JF635-HaloTag® ligand, reference compound], for which the “affinity capture (protein bound to streptavidin)” value in series [1] is listed as “no appreciable protein capture”. Further, in series [2] (octanol-PBS pH 7.4), the logD7.4 is 3.82.

On to `C[Si]1(C)C2=CC(=[N+]3CC(C(=O)NCCOCCOCCNC(=O)CCCC[C@@H]4SC[C@@H]5NC(=O)N[C@@H]54)C3)C=CC2=C(c2cc(C(=O)NCCOCCOCCCCCCCl)ccc2C(=O)[O-])c2ccc(N3CCC3)cc21` (stereo partly drawn) [compound 14, Biotin-JF646-HaloTag® ligand], for which, in series [1], the capture efficiency came to 44.8±2.8% and the “affinity capture (protein bound to streptavidin)” value was “efficient affinity capture”. The compound further came in with a logD7.4 in series [2] (octanol-PBS pH 7.4) of 3.06.

On to `C[Si]1(C)C2=CC(=[N+]3CC(F)(C(=O)NCCOCCOCCNC(=O)CCCC[C@@H]4SC[C@@H]5NC(=O)N[C@@H]54)C3)C=CC2=C(c2cc(C(=O)NCCOCCOCCCCCCCl)ccc2C(=O)[O-])c2ccc(N3CC(F)C3)cc21` (stereo partly drawn) [compound 15, Biotin-JF635-HaloTag® ligand], for which, in series [1], the capture efficiency is given as 43.4±2.3% and the “affinity capture (protein bound to streptavidin)” value is reported as “efficient affinity capture”. The compound also registered a logD7.4 in series [2] (octanol-PBS pH 7.4) of 3.6.

As to “Biotin-JF549-HaloTag® ligand [compound 12]”, in series [2] (pH 7.4), the logD7.4 is given as 0.07.
